Columns and labels:
Format in all cases: cell-based
[1] = system: Enterococcus faecalis 276; assay: MIC, standard broth micro-dilution assay, EF 276
Description: (§1) The antibacterial efficacy of the present compounds is illustrated by Table III. The minimal inhibitory concentrations (MICs) were determined using a standard broth micro-dilution assay.

[2] = system: Staphylococcus aureus 447; assay: MIC, standard broth micro-dilution assay, SA 447
Description: as §1

[3] = system: Staphylococcus aureus X778; assay: MIC, standard broth micro-dilution assay, SA X778
Description: as §1

[4] = system: Staphylococcus aureus X400; assay: MIC, standard broth micro-dilution assay, SA X400
Description: as §1

Enterococcus faecium 180 = assay: MIC, standard broth micro-dilution assay, EF 180
Description: as §1

Escherichia coli EC14 = assay: MIC, standard broth micro-dilution assay, EC 14
Description: as §1

[5] = system: Resistant Enterococcus faecium and faecalis; assay: MIC, standard broth micro-dilution assay, Resistant; details: geometric mean of 4-6 isolates
Description: as §1

[6] = system: Staphylococcus aureus 446; assay: MIC, standard broth micro-dilution assay, SA 446
Description: as §1

[7] = system: Staphylococcus aureus 491; assay: MIC, standard broth micro-dilution assay, SA 491
Description: as §1

[8] = system: Enterococcus gallinarum 245; assay: MIC, standard broth micro-dilution assay, EG 245
Description: as §1

[9] = system: Staphylococcus haemolyticus 415; assay: MIC, standard broth micro-dilution assay, SH 415
Description: as §1

[10] = system: Staphylococcus aureus 489; assay: MIC, standard broth micro-dilution assay, SA 489
Description: as §1

[11] = system: Enterococcus faecium 180-1; assay: MIC, standard broth micro-dilution assay, EF 180-1
Description: as §1

[12] = system: Staphylococcus aureus S13E
Description: as §1

[13] = system: Sensitive Enterococcus faecium and faecalis; assay: MIC, standard broth micro-dilution assay, Sensitive; details: geometric mean of 4-6 isolates
Description: as §1

[14] = system: Staphylococcus aureus SA1199; assay: MIC, standard broth micro-dilution assay, SA 1199
Description: as §1

[15] = system: Staphylococcus haemolyticus 105; assay: MIC, standard broth micro-dilution assay, SH 105
Description: as §1

[16] = system: Haemophilus influenzae RD; assay: MIC, standard broth micro-dilution assay, HFRD
Description: as §1

[17] = system: Enterococcus faecalis 2041; assay: MIC, standard broth micro-dilution assay, EF 2041
Description: as §1

[18] = system: Staphylococcus epidermidis 270; assay: MIC, standard broth micro-dilution assay, SE 270
Description: as §1

[19] = system: Staphylococcus aureus SA1199A; assay: MIC, standard broth micro-dilution assay, SA 1199A
Description: as §1

| Structure (SMILES) | minimal inhibitory concentration (MIC), EF 276 [1] | minimal inhibitory concentration (MIC), SA 447 [2] | minimal inhibitory concentration (MIC), SA X778 [3] | minimal inhibitory concentration (MIC), SA X400 [4] | minimal inhibitory concentration (MIC), EF 180 (Enterococcus faecium 180) | minimal inhibitory concentration (MIC), EC 14 (Escherichia coli EC14) | minimal inhibitory concentration (MIC), Resistant [5] | minimal inhibitory concentration (MIC), SA 446 [6] | minimal inhibitory concentration (MIC), SA 491 [7] | minimal inhibitory concentration (MIC), EG 245 [8] | minimal inhibitory concentration (MIC), SH 415 [9] | minimal inhibitory concentration (MIC), SA 489 [10] | minimal inhibitory concentration (MIC), EF 180-1 [11] | minimal inhibitory concentration (MIC), SA S13E [12] | minimal inhibitory concentration (MIC), Sensitive [13] | minimal inhibitory concentration (MIC), SA 1199 [14] | minimal inhibitory concentration (MIC), SH 105 [15] | minimal inhibitory concentration (MIC), HFRD [16] | minimal inhibitory concentration (MIC), EF 2041 [17] | minimal inhibitory concentration (MIC), SE 270 [18] | also measured |
| --- | --- | --- | --- | --- | --- | --- | --- | --- | --- | --- | --- | --- | --- | --- | --- | --- | --- | --- | --- | --- | --- |
| CC1OC(OC2c3ccc(c(Cl)c3)Oc3cc4cc(c3OC3OC(CO)C(O)C(O)C3OC3CC(C)(NCc5ccc(-c6ccccc6)cc5)C(O)C(C)O3)Oc3ccc(cc3Cl)C(O)C(NC(=O)C(N)Cc3ccc(Cl)cc3)C(=O)NC(CC(N)=O)C(=O)NC4C(=O)NC3C(=O)NC2C(=O)NC(C(=O)O)c2cc(O)cc(O)c2-c2cc3ccc2O)CC(C)(N)C1O [Example 33, N^1-[L-3-(p-chlorophenyl)alanine] derivative of N^DISACC-(p-phenylbenzyl)desleucylA82846B] | 4 | 1 | 1 | 1 | 4 | >64 | 27 | 1 | 0.5 | 1 | 0.5 | 2 | 0.5 | 1 | 2.6 | 0.5 | 0.5 | >64 | 2 | 0.25 | minimal inhibitory concentration (MIC), SA 1199A [19]: 0.25 |
| CC1OC(OC2C(Oc3c4cc5cc3Oc3ccc(cc3Cl)[C@@H](O)[C@@H](NC(=O)[C@@H](Cc3ccc(Cl)cc3)NC(=O)OC(C)(C)C)C(=O)N[C@@H](CC(N)=O)C(=O)N[C@H]5C(=O)N[C@H]3C(=O)NC(C(=O)N[C@H](C(=O)O)c5cc(O)cc(O)c5-c5cc3ccc5O)[C@H](OC3CC(C)(N)C(O)C(C)O3)c3ccc(c(Cl)c3)O4)OC(CO)C(O)C2O)CC(C)(N)C1O (stereo partly drawn) [Example 20, N^1-[N-BOC-D-3-(p-chlorophenyl)alanine] derivative of desleucylA82846B] | 0.125 | 0.25 | 0.25 | ≦.06 | 16 | >64 | >128 | 0.5 | ≦.06 | 0.5 | 16 | ≦.06 | 0.25 | 0.125 | 2 | 0.125 | 8 | 8 | ≦.06 | 0.125 | minimal inhibitory concentration (MIC), SA 1199A [19]: no growth |
| CC1OC(OC2c3ccc(c(Cl)c3)Oc3cc4cc(c3OC3OC(CO)C(O)C(O)C3OC3CC(C)(NCc5ccc(-c6ccccc6)cc5)C(O)C(C)O3)Oc3ccc(cc3Cl)C(O)C(NC(=O)C(N)CCCCN)C(=O)NC(CC(N)=O)C(=O)NC4C(=O)NC3C(=O)NC2C(=O)NC(C(=O)O)c2cc(O)cc(O)c2-c2cc3ccc2O)CC(C)(N)C1O [Example 23, N^1-D-lysine derivative of N^DISACC-(p-phenylbenzyl)desleucylA82846B] | 0.25 | 1 | 2 | 2 | 0.5 | >64 | 2 | 1 | 0.5 | 0.125 | 1 | 0.5 | ≦.06 | 2 | 0.29 | 0.5 | 1 | >64 | 0.5 | 0.125 | minimal inhibitory concentration (MIC), SA 1199A [19]: 0.25 |
| CC(C)CC(N)C(=O)NC1C(=O)NC(CC(N)=O)C(=O)NC2C(=O)NC3C(=O)NC(C(=O)NC(C(=O)O)c4cc(O)cc(O)c4-c4cc3ccc4O)C(OC3CC(C)(N)C(O)C(C)O3)c3ccc(c(Cl)c3)Oc3cc2cc(c3OC2OC(CO)C(O)C(O)C2O)Oc2ccc(cc2Cl)C1O [Example 37, N^1-D-leucine derivative of desepivancosaminyl-desleucylA82846B] | 0.25 | 1 | 0.25 | 0.25 | >64 | >64 | >32 | 0.5 | 0.5 | 0.5 | 4 | 0.25 | 0.25 | 0.25 | 0.87 | 0.5 | 0.25 | 64 | 0.5 | 0.5 | minimal inhibitory concentration (MIC), SA 1199A [19]: 0.125 |
| CC1OC(OC2c3ccc(c(Cl)c3)Oc3cc4cc(c3OC3OC(CO)C(O)C(O)C3OC3CC(C)(N)C(O)C(C)O3)Oc3ccc(cc3Cl)C(O)C(NC(=O)C(Cc3ccccc3)N(C)C(=O)OC(C)(C)C)C(=O)NC(CC(N)=O)C(=O)NC4C(=O)NC3C(=O)NC2C(=O)NC(C(=O)O)c2cc(O)cc(O)c2-c2cc3ccc2O)CC(C)(N)C1O [Example 40, N^1-(N-BOC-N-methyl-D-phenylalanine) derivative of desleucylA82846B] | 1 | 8 | 4 | 4 | >64 | >64 | >128 | 4 | 2 | 16 | 64 | 4 | 4 | 4 | 9.2 | 4 | 4 | >64 | 2 | 4 | minimal inhibitory concentration (MIC), SA 1199A [19]: 2 |
| CC1OC(OC2c3ccc(c(Cl)c3)Oc3cc4cc(c3OC3OC(CO)C(O)C(O)C3OC3CC(C)(NCc5ccc(-c6ccccc6)cc5)C(O)C(C)O3)Oc3ccc(cc3Cl)C(O)C(NC(=O)C(CCCCNC(=O)OC(C)(C)C)NC(=O)OC(C)(C)C)C(=O)NC(CC(N)=O)C(=O)NC4C(=O)NC3C(=O)NC2C(=O)NC(C(=O)O)c2cc(O)cc(O)c2-c2cc3ccc2O)CC(C)(N)C1O [Example 30, N^1-(N,N′-DIBOC-L-lysine) derivative of N^DISACC-(p-phenylbenzyl)desleucylA82846B] | 2 | 2 | 1 | 2 | 8 | >64 | 38 | 8 | 2 | 2 | 2 | 1 | 0.5 | 2 | 2.3 | 2 | 2 | >64 | 1 | 1 | minimal inhibitory concentration (MIC), SA 1199A [19]: 1 |

Reference: patent US6670446B1, “N1 modified glycopeptides” (Eli Lilly and Company, priority 1998, dated 2003)
